Experiments:
Type in all cases: cell-based
Design in all cases: key: +: inhibition zones against the tested microorganisms were observed; −: inhibition zones were not detected
[1] = tested on: Pseudomonas aeruginosa; assay: standard NCCLS disc diffusion method, Pseudomonas aeruginosa; details: TSA, 36±1° C., 24 hours
Protocol: (§1) Antimicrobial properties of the textile products loaded with impregnation solution were examined by using standard NCCLS disc diffusion method (Lalitha, 2005). Briefly, the 100 μl solution including 10^8 cfu/ml bacteria, 10^6 cfu/ml yeast, and 10^4 spor/ml fungus was prepared with new cultures and inoculated with spreading method on Trypticase soy agar (TSA), Sabouraud Dextrose Agar (SDA), and Potato Dextrose Agar (PDA), respectively. The sections of approximately 1×1 cm, which were cut out from the textile products loaded with the impregnation solution comprising the stated concentrations of triclosan, chlorhexidine and disodium octaborate pentahydrate, were placed on inoculated petri dishes. Empty textile products which were not loaded with impregnation solution were used as negative control. […] The petri dishes, which were inoculated and on which textile products were placed, were kept at 36±1° C. for bacteria for 24 hours and 48 hours for yeasts and at 25±1° C. for fungi for 72 hours. Antimicrobial activity against microorganisms tested in standard disc diffusion method was assessed by measuring the inhibition zone. All tests were repeated at least twice.

[2] = tested on: Escherichia coli; assay: standard NCCLS disc diffusion method, Escherichia coli; details: TSA, 36±1° C., 24 hours
Protocol: as §1

[3] = tested on: MRSA; assay: standard NCCLS disc diffusion method, MRSA; details: TSA, 36±1° C., 24 hours
Protocol: as §1

[4] = tested on: Staphylococcus aureus; assay: standard NCCLS disc diffusion method, Staphylococcus aureus; details: 10 μg/disc, TSA, 36±1° C., 24 hours
Protocol: as §1

[5] = tested on: Penicillium spp.; assay: standard NCCLS disc diffusion method, Penicillium spp.; details: 100 u/disc, PDA, 25±1° C., 72 hours
Protocol: (§2) Antimicrobial properties of the textile products loaded with impregnation solution were examined by using standard NCCLS disc diffusion method (Lalitha, 2005). Briefly, the 100 μl solution including 10^8 cfu/ml bacteria, 10^6 cfu/ml yeast, and 10^4 spor/ml fungus was prepared with new cultures and inoculated with spreading method on Trypticase soy agar (TSA), Sabouraud Dextrose Agar (SDA), and Potato Dextrose Agar (PDA), respectively. The sections of approximately 1×1 cm, which were cut out from the textile products loaded with the impregnation solution comprising the stated concentrations of triclosan, chlorhexidine and disodium octaborate pentahydrate, were placed on inoculated petri dishes. Empty textile products which were not loaded with impregnation solution were used as negative control. As positive control, Ofloxacin (5 μg/disc) was used for bacteria and Nystatin (100 u/disc) was used for yeasts and fungi. The petri dishes, which were inoculated and on which textile products were placed, were kept at 36±1° C. for bacteria for 24 hours and 48 hours for yeasts and at 25±1° C. for fungi for 72 hours. Antimicrobial activity against microorganisms tested in standard disc diffusion method was assessed by measuring the inhibition zone. All tests were repeated at least twice.

[6] = tested on: Candida spp.; assay: standard NCCLS disc diffusion method, Candida spp.; details: 100 u/disc, SDA, 36±1° C., 48 hours
Protocol: as §2

[7] = tested on: Aspergillus spp.; assay: standard NCCLS disc diffusion method, Aspergillus spp.; details: 100 u/disc, PDA, 25±1° C., 72 hours
Protocol: as §2

Measured: In vitro antimicrobial test result (inhibition zone), positive control

CC1COc2c(N3CCN(C)CC3)c(F)cc3c(=O)c(C(=O)O)cn1c23 (stereo not shown) [Ofloxacin]
+: [1] | [2] | [3] | [4]

C[C@@H]1[C@H](O)[C@@H](C)/C=C/C=C/CC/C=C/C=C/C=C/C=C/C(O[C@H]2O[C@H](C)[C@@H](O)[C@H](N)[C@@H]2O)CC2O[C@](O)(CC(O)C(O)CCC(O)CC(O)CC(O)CC(=O)O[C@H]1C)CC(O)C2C(=O)O (stereo partly shown) [Nystatin]
+: [5] | [6] | [7]
